“Also recorded” adds a separate entry of the source.
Experiments:
active p38 MAP kinase = test: Immunohistochemistry of active p38 in trigeminal ganglia after TNF-α and capsaicin; assay type: in vivo, Sprague Dawley rats; conditions: 10 mg/kg i.p. pre-treatment, neurons and satellite glial cells in V1 and V2 regions, compared to TNF-α and capsaicin treated animals
Method: (§1) Sprague Dawley rats injected with True Blue were used to localize neuronal cell bodies in the ganglion and study neuron-glia signalling via gap junctions in the trigeminal ganglion. Dye coupling studies were conducted under basal conditions and in response to tumour necrosis factor-α injection into the whisker pad and/or capsaicin injection into the eyebrow. Changes in connexin 26 and active p38 levels were determined by immunohistochemistry.
(§2) In addition, the effect of tonabersat prior to chemical stimulation on gap junction activity and expression of connexins and active p38 was investigated.
Ganglia were collected from untreated animals or animals injected with TNF-α, capsaicin, or TNF-α and capsaicin as described above. Sections were fixed using 4% paraformaldehyde for 60 minutes, permeabilized with 0.3% Triton-X100 for 60 minutes, and then incubated in 5% donkey serum for another 60 minutes. Sections were then incubated overnight at 4° C. with primary antibodies against connexin 26 (1:500 in PBS; Chemicon, Temecula, Calif.) or active p38 MAP kinase (1:200; Cell Signaling Technology, Danvers, Mass.). Immunoreactive proteins were visualized following incubation with Rhodamine Red Xconjugated donkey anti-rabbit antibodies (diluted 1:100 in PBS, Jackson Immuno-Research Laboratories, West Grove, Pa.) for 1 hour at room temperature and then mounted in Vectashield medium (H-1200) containing 4′,6 diamidino-2-phenylindole (DAPI) to allow for identification of neuronal and glial cell nuclei. As a control, some sections were incubated for 1 hour at room temperature with only the Rhodamine Red Xconjugated anti-rabbit antibodies. Images were collected as described above.
To determine whether TNF-α sensitization of capsaicin-responsive neurons could lead to increased expression of p38, animals were injected with TNF-α, capsaicin, or both agents and ganglion sections stained for the active phosphorylated form of p38. […]

[1] = test system: gap junction communication between neurons and satellite glial cells in the trigeminal ganglion; test: Dye coupling studies (True Blue) of neuron-satellite glia gap junction signalling in trigeminal ganglion after TNF-α and capsaicin; assay type: in vivo, Sprague Dawley rats; conditions: 10 mg/kg i.p. pre-treatment prior to TNF-α then capsaicin; V1 and V2 regions of ganglia
Method: as §1, §2
Young male rats (200-225 g) were brought to the lab and kept in a quiet environment for about 30 minutes. Rats were anesthetized by an intraperitoneal (i.p.) injection of 0.3 ml of ketamine and xylazine solution (800 mg and 60 mg in 10 ml, respectively; Sigma, St. Louis, Mo.). […] Initially, rats were injected with a fluorescent dye, True Blue (25 μl, 2 mg/ml in dimethyl sulfoxide, DMSO; Invitrogen, Eugene, Oreg.) in the whisker pad or eyebrow regions to retrogradely label neuronal cell bodies within the V1 and V2 regions of the trigeminal ganglion. Bilateral injections were performed using a 50 μL Hamilton syringe (Hamilton Company, Reno, Nev.) and a 261/2 G needle (Becton Dickinson, FranklinLakes, N.J.). […]

connexin 26 = test: Immunohistochemistry of connexin 26 in trigeminal ganglia after TNF-α and capsaicin; assay type: in vivo, Sprague Dawley rats; conditions: 10 mg/kg i.p. pre-treatment
Method: as §1, §2
Ganglia were collected from untreated animals or animals injected with TNF-α, capsaicin, or TNF-α and capsaicin as described above. Sections were fixed using 4% paraformaldehyde for 60 minutes, permeabilized with 0.3% Triton-X100 for 60 minutes, and then incubated in 5% donkey serum for another 60 minutes. Sections were then incubated overnight at 4° C. with primary antibodies against connexin 26 (1:500 in PBS; Chemicon, Temecula, Calif.) or active p38 MAP kinase (1:200; Cell Signaling Technology, Danvers, Mass.). […]

trigeminal nerve = conditions: Parsons et al., Brit. J. Pharmacol. 2001, cited from earlier work

CC(=O)c1ccc2c(c1)[C@H](NC(=O)c1ccc(F)c(Cl)c1)[C@H](O)C(C)(C)O2 [tonabersat, cis-6-acetyl-4-(S)-(3-chloro-4-fluorobenzoylamino)-3,4-dihydro-2,2-dimethyl-2H-1-benzopyran-3-(S)-ol]
active p38 levels (active p38 MAP kinase): greatly decreased; also recorded: blocked | amount of nuclear staining of active p38 (active p38 MAP kinase): greatly decreased | active p38 levels (active p38 MAP kinase; listed as Tonabersat): lowered p38 levels to those observed in ganglia obtained from untreated control animals | stimulated dye movement between neurons and satellite glial cells (gap junction communication) [1]: greatly reduced; also recorded: decrease | level of connexin 26 staining (connexin 26; V1 and V2 regions, compared to animals treated with TNF-α and capsaicin): greatly decreased; also recorded: decrease | number of plaques observed between neurons and satellite glial cells (connexin 26; ganglia from TNF-α and capsaicin treated animals, higher magnification): much lower | trigeminal nerve activation (trigeminal nerve; 10 mg/kg, animal models): block | trigeminal parasympathetic reflexes (trigeminal nerve): blockade

From patent US20130281524A1, “NOVEL TREATMENTS” (priority 2008, published 2013)
